ChEMBL document CHEMBL1137498, “Design, synthesis and biological evaluation of novel lipoamino acid-based glycolipids for oral drug delivery” (Bioorg Med Chem, 2007)
In brackets after ≈: the same amount, converted by molar mass.

Experiments:
[1] = test system: Bacillus subtilis; test: Antibacterial activity against Bacillus subtilis; format: functional
[2] = test system: Escherichia coli; test: Antibacterial activity against Escherichia coli; format: functional
[3] = test system: Klebsiella aerogenes; test: Antibacterial activity against Klebsiella aerogenes; format: functional
[4] = test system: Pseudomonas aeruginosa; test: Antibacterial activity against Pseudomonas aeruginosa; format: functional
[5] = test system: Staphylococcus aureus; test: Antibacterial activity against Staphylococcus aureus; format: functional
[6] = Apparent permeability across Caco-2 cells; format: ADME, cell-based; settings: human

With CCN1CCN(C(=O)N[C@@H](C(=O)N[C@@H]2C(=O)N3[C@@H]2SC(C)(C)[C@@H]3C(=O)O)c2ccccc2)C(=O)C1=O [PIPERACILLIN] the MIC [1] was 0.5 µg/mL (≈ 0.966 µM), the MIC [2] was 4 µg/mL (≈ 7.73 µM) and the MIC [3] was 8 µg/mL (≈ 15.5 µM). It also gave an MIC [4] of 4 µg/mL (≈ 7.73 µM), an MIC [5] of 1 µg/mL (≈ 1.93 µM) and a Papp [6] of 0.0325 ×10⁻⁶ cm/s.
